# Test results: ChEMBL document CHEMBL3044747, “The antimycobacterial MICs, SARs, and QSARs of some ethnobotanically selected phytocompounds” (2013)
# Key:
# Format in all cases: functional
# Conditions in all cases: 672 h
# [1] = tested on: Mycobacterium tuberculosis; experiment: Antimycobacterial activity against Mycobacterium tuberculosis H37Rv grown on Lowenstein-Jensen solid medium assessed as growth inhibition incubated with compound dissolved in DMSO measured after 4 weeks
# [2] = tested on: Mycobacterium tuberculosis; experiment: Antimycobacterial activity against Mycobacterium tuberculosis H37Rv grown on Lowenstein-Jensen solid medium assessed as growth inhibition incubated with compound dissolved in water measured after 4 weeks
# [3] = tested on: Mycobacterium tuberculosis; experiment: Antimycobacterial activity against MDR Mycobacterium tuberculosis grown in MGIT liquid medium assessed as growth inhibition measured after 4 weeks by BACTEC method
# [4] = tested on: Mycobacterium tuberculosis; experiment: Antimycobacterial activity against Mycobacterium tuberculosis H37Rv grown in MGIT liquid medium assessed as growth inhibition measured after 4 weeks by BACTEC method
# [5] = tested on: Mycobacterium tuberculosis; experiment: Antimycobacterial activity against Mycobacterium tuberculosis H37Rv grown on Lowenstein-Jensen solid medium assessed as growth inhibition incubated with compound dissolved in ethanol/methanol measured after 4 weeks
# [6] = tested on: Mycobacterium tuberculosis; experiment: Antimycobacterial activity against Mycobacterium tuberculosis H37Rv grown on Lowenstein-Jensen solid medium assessed as growth inhibition measured after 4 weeks
smiles,measurement,setting,value
CCC1=C(O)C(=O)C=C(O)C1=O,MIC,[1],70 µg/mL
same,MIC,[2],62.3 µg/mL
same,MIC,[3],120 µg/mL
same,MIC,[4],109 µg/mL
CC(C)CCc1cc2c(cc1O)OCC1c3cc(O)cc(CCC(C)C)c3OC21 (stereo not drawn),MIC,[1],74.3 µg/mL
same,MIC,[2],81.7 µg/mL
C[C@@H]1CCC2(CO)C(C(=O)O)=CCCC2[C@@]1(C)CCc1ccoc1 (stereo partly drawn),MIC,[5],31 µg/mL
same,MIC,[1],37.4 µg/mL
same,MIC,[2],36.7 µg/mL
C=C1CC23CCC4[C@](O)(CO)C[C@@H](O)C[C@]4(C)C2CCC1C3 (stereo partly drawn),MIC,[5],39.7 µg/mL
same,MIC,[1],37.6 µg/mL
same,MIC,[2],66.8 µg/mL
C[C@]12CC(=O)CC(CO)(CO)C1CC[C@@]13CC4[C@@H](CC12)[C@@]4(C)C3 (stereo partly drawn),MIC,[5],42.3 µg/mL
same,MIC,[1],42.9 µg/mL
same,MIC,[2],23.3 µg/mL
COc1ccc2c(c1OC)C=NC1C2CCC2CC3OCOC3CC21.Cl (stereo not drawn),MIC,[5],16 µg/mL
same,MIC,[1],31.3 µg/mL
same,MIC,[2],50.3 µg/mL
O=C1CCc2nccc3c4ccccc4n1c23,MIC,[5],30 µg/mL
same,MIC,[1],42 µg/mL
same,MIC,[2],49.3 µg/mL
c1c2c(cc3c1C1CCN4CCC[C@@]56CCN3[C@@]1(CC5)C46)OCO2 (stereo partly drawn),MIC,[1],36.2 µg/mL
same,MIC,[2],38.7 µg/mL
CCC1=C(O)C(=O)C(CC)=C(O)C1=O,MIC,[3],55 µg/mL
same,MIC,[4],50 µg/mL
CCCC1=C(O)C(=O)C=C(O)C1=O,MIC,[3],115 µg/mL
same,MIC,[4],85 µg/mL
CCCCCC1=C(O)C(=O)C=C(O)C1=O,MIC,[3],110 µg/mL
same,MIC,[4],50 µg/mL
CCCCCCCC1=C(O)C(=O)C=C(O)C1=O,MIC,[3],106 µg/mL
same,MIC,[4],45 µg/mL
CCCCCCCCCC1=C(O)C(=O)C=C(O)C1=O,MIC,[3],60 µg/mL
same,MIC,[4],7.5 µg/mL
CCCC/C=C/CCCCCCCCCCCCCc1c(O)c(OC(C)=O)c(C)c(OC(C)=O)c1OC(C)=O,MIC,[3],40 µg/mL
same,MIC,[4],10 µg/mL
COc1cc(O)c(C/C=C/c2ccccc2)c(OC)c1,MIC,[1],58.4 µg/mL
same,MIC,[2],37.9 µg/mL
COc1cc(O)cc(O)c1C/C=C/c1ccccc1,MIC,[1],49.7 µg/mL
same,MIC,[2],53.7 µg/mL
COc1cc(O)c(C/C=C/c2ccccc2)c(O)c1OC,MIC,[1],41 µg/mL
same,MIC,[2],48.3 µg/mL
COc1cc(O)c(CCCc2ccccc2)c(O)c1OC,MIC,[1],34.3 µg/mL
same,MIC,[2],49.7 µg/mL
COc1ccc(C2Oc3cc(O)c(OC)c(O)c3C(=O)C2OC)cc1 (stereo not drawn),MIC,[1],53 µg/mL
same,MIC,[2],59.3 µg/mL
COc1cc(-c2cc(=O)c3c(O)cc(O)cc3o2)c(OC)c(OC)c1OC,MIC,[5],7.4 µg/mL
same,MIC,[1],15 µg/mL
same,MIC,[2],48 µg/mL
COc1ccc(-c2coc3cc(O)cc(O)c3c2=O)cc1C=O,MIC,[1],37 µg/mL
same,MIC,[2],36.3 µg/mL
COc1cc2c(=O)c(-c3ccc4c(c3)OCO4)coc2c2c1OC(C)(C)CC2,MIC,[5],40.3 µg/mL
same,MIC,[1],74.7 µg/mL
same,MIC,[2],37.9 µg/mL
CCCC/C=C/CCCCCCCCCC1=C(O)C(=O)C=C(OC)C1=O,MIC,[1],40.7 µg/mL
same,MIC,[2],50 µg/mL
CCCC/C=C/CCCCCCCCCC1=C(O)C(=O)C(C)=C(O)C1=O,MIC,[1],41.3 µg/mL
same,MIC,[2],40.9 µg/mL
CCCC/C=C/CCCCCCCCCCCCCC1=C(C(C)=O)C(=O)C(C)=C(OC(C)=O)C1=O,MIC,[3],27.5 µg/mL
same,MIC,[4],5 µg/mL
CCCCCCCCCCCC1=C(C(C)=O)C(=O)C=C(OC(C)=O)C1=O,MIC,[3],50 µg/mL
same,MIC,[4],42.5 µg/mL
CCCCCCCCCCCC1=C(OC)C(=O)C=C(OC)C1=O,MIC,[3],20 µg/mL
same,MIC,[4],10 µg/mL
CCCCCCCCCCCCCCCC1=C(O)C(=O)C=C(O)C1=O,MIC,[3],105 µg/mL
same,MIC,[4],107 µg/mL
CCCCCCCCCCCC1=C(O)C(=O)C=C(OC)C1=O [5-O-METHYLEMBELIN],MIC,[3],32.9 µg/mL
same,MIC,[4],15 µg/mL
CCCCCCCCCCCC1=C(O)C(=O)C=C(O)C1=O [EMBELIN],MIC,[5],14.7 µg/mL
same,MIC,[1],35.3 µg/mL
same,MIC,[2],49 µg/mL
same,MIC,[3],50 µg/mL
same,MIC,[4],15 µg/mL
Cc1cc(O)c2c(c1)C(=O)c1cc(O)cc(O)c1C2=O [EMODIN],MIC,[1],51.7 µg/mL
same,MIC,[2],50.3 µg/mL
CC[C@@H](CO)NCCN[C@@H](CC)CO [ETHAMBUTOL],MIC,[6],2.65 µg/mL
same,MIC,[3],15 µg/mL
same,MIC,[4],2.5 µg/mL
NNC(=O)c1ccncc1 [ISONIAZID],MIC,[6],0.6 µg/mL
same,MIC,[3],2.7 µg/mL
same,MIC,[4],0.8 µg/mL
COc1ccc(-c2oc3cc(O)cc(O)c3c(=O)c2O)cc1 [KAEMPFERIDE],MIC,[1],32.7 µg/mL
same,MIC,[2],26 µg/mL
CC(=O)c1c(C)cc2cccc(O)c2c1O [NEPODIN],MIC,[1],40.3 µg/mL
same,MIC,[2],84.7 µg/mL
O=C1C[C@@H](c2ccccc2)Oc2cc(O)cc(O)c21 [PINOCEMBRIN],MIC,[1],73 µg/mL
same,MIC,[2],63.3 µg/mL
CC1=CC(=O)c2c(O)cccc2C1=O [PLUMBAGIN],MIC,[1],42.3 µg/mL
same,MIC,[2],40.3 µg/mL
COc1cc(O)c2c(=O)c(O)c(-c3ccc(O)cc3)oc2c1 [RHAMNOCITRIN],MIC,[5],15.3 µg/mL
same,MIC,[1],37.7 µg/mL
same,MIC,[2],59.7 µg/mL
CO[C@H]1/C=C/O[C@@]2(C)Oc3c(C)c(O)c4c(O)c(c(/C=N/N5CCN(C)CC5)c(O)c4c3C2=O)NC(=O)/C(C)=C\C=C\[C@H](C)[C@H](O)[C@@H](C)[C@@H](O)[C@@H](C)[C@H](OC(C)=O)[C@@H]1C [RIFAMPIN],MIC,[6],45.7 µg/mL
same,MIC,[3],30 µg/mL
same,MIC,[4],7.5 µg/mL
CCCCCCCCCCCCCC1=C(O)C(=O)C=C(O)C1=O [Rapanone],MIC,[3],65 µg/mL
same,MIC,[4],35 µg/mL
COc1ccc(-c2oc3cc(O)c(OC)c(O)c3c(=O)c2OC)cc1 [SANTIN],MIC,[1],59 µg/mL
same,MIC,[2],51 µg/mL
CN[C@@H]1[C@H](O[C@H]2[C@H](O[C@H]3[C@H](O)[C@@H](O)[C@H](N=C(N)N)[C@@H](O)[C@@H]3N=C(N)N)O[C@@H](C)[C@]2(O)C=O)O[C@@H](CO)[C@H](O)[C@H]1O [STREPTOMYCIN],MIC,[6],4.95 µg/mL
same,MIC,[3],2.5 µg/mL
same,MIC,[4],3.3 µg/mL
CCCCCCCCCCCCCC1=C(O)C(=O)C=C(OC)C1=O [Sorgoleone-364],MIC,[3],70 µg/mL
same,MIC,[4],60 µg/mL
